Measurements taken from patent publication US20220409526A1 (Retina Foundation Of The Southwest, priority 2019, published 2022).

Tests used:
Format in all cases: cell-based, human
[1] = tested on: mitochondria isolated from ARPE-19 cells; assay: Mitochondrial GSH assay; conditions: 1 mM for 24 hours; compared to NAC and ARPE-19 cells
Experimental: A GSH assay was carried out for isolated mitochondria to study the mechanism of action of the NAC alkyl-ester analogues in protecting mitochondria. ARPE-19 cells were grown in 6 well plates until 100% confluent in MEM-NIC media. The cells were exposed to 3 mL of 1 mM solutions of NAC and NACBE for 24 hours. The solutions were removed and washed with 3 mL of HBSS before adding 1 mL of 0.25% Trypsin-EDTA and incubating for 10 minutes. 2 mL of DMEM:F-12 supplemented with 10% FBS was added to each well, harvested and centrifuged at 300 rcf for 5 minutes. The supernatant was removed and cell pellet was resuspended in 2 mL of isolation buffer (0.25 M sucrose and 10 mM HEPES).
Cells were disrupted using a probe sonicator (Misonix 5-3000) for 10 seconds in ice. Subsequently, intact cells and debris were removed by centrifuging at 1000 g for 10 mins. Supernatant was collected, and centrifuged at 20,000 g for 25 minutes. Pellet containing mitochondria were saved and washed using 0.5 mL of isolation buffer. After centrifuging at 20,000 g for 25 minutes the mitochondrial pellet was resuspended in 50 μL of HBSS. 25 μL was used to determine total GSH and GSSG and 25 μL was used to determine GSSG levels. GSH assay was then carried out according to manufacturer recommended protocol (Promega GSH/GSSG-Glo™) and luminescence readings were obtained.

ARPE-19 cells [2] = assay: JC-1 assay (mitochondrial membrane potential); conditions: 1 mM pretreatment for 1 hour, then 50 μM HQ for 4 hours
Experimental: JC-1 assays measuring the change in mitochondrial membrane potential were carried out to evaluate the protection of the NAC alkyl-ester analogues towards mitochondrial damage.
Typically, JC-1 dye has an inherent green fluorescence at 530 nm. Upon reaching the cell, due to the structural properties of the dye, it will accumulate in the mitochondria making aggregates known as J-aggregates. These J-aggregates consists of a red shifted fluorescence (590 nm). Damaged or unhealthy mitochondria, due to their depolarized membrane potential (compared to healthy ones), will have lesser amounts of aggregates and thus will have low intensity of red emission. Cells with healthy mitochondria will have a more prominent red fluorescence than that in cells with damaged/unhealthy mitochondria due to the ability in forming J-aggregates.
ARPE-19 cells were grown in black, clear bottom 96 well plates. […] With increasing time and dose of HQ, a drop in 590 nm/530 nm fluorescence is seen due to the depolarization of the mitochondria.
Next, to assess the effect of NAC alkyl-ester analogues on oxidative damage in mitochondria (FIG. 12B), ARPE-19 cells were pretreated with 1 mM NAC, NAC alkyl-ester analogues, NACA, GSH-EE and 1 μM MitoQ for 1 and 24 hours. […] The JC-1 solution was removed and washed once with PBS and fluorescence measurements were obtained in PBS at 485 nm excitation and emission at 535 nm and 590 nm. […]

ARPE-19 cells [3] = assay: in vitro; conditions: then 500 μM HQ for 16 hours
Experimental: ARPE-19 cells were grown in DMEM:F-12 supplemented with 10% fetal bovine serum (FBS). For all experiments these cells were split and grown in 6-well plates using MEM-Nic supplemented with 1% FBS according to a previously published procedure.^33 Cells used for all the experiments were between passages 25-30. For all experiments, the 96 well plates and 8-well slides were coated with 0.039 mg/mL collagen I at 6 μg/cm^2. The cells were seeded at a cell density of 70,000 cells/well and 150,000 cells/well using MEM-Nic media for 96 well plates and 8 well slides, respectively. Once the cells are confluent, media was replaced with MEM a, GlutaMAX™, supplemented with 1% FBS for 24 hours before carrying out assay protocols. Exposure to NAC alkyl-ester prodrugs were carried out in MEM a, GlutaMAX™, supplemented with 1% FBS and treatment with HQ was carried out in serum free DMEM:F-12.
ARPE-19 Cell viability assays were carried out using XTT/PMS reagent mixtures according to standard procedures known in the art (see Celis, J. E.; Carter, N., Cell Biology: A Laboratory Handbook. Elsevier Science: 2005). Corresponding absorbance readings were obtained using a plate reader at 450 and 660 nm.
A dose dependent study was first carried out for ARPE-19 cells using HQ concentrations varying from 100-1000 μM. Cells were then incubated at 37° C., 5% CO2 for 16 hours. HQ doses of less than 400 μM were non-lethal. Using 500 μM HQ for 16 hours gave a cell viability of ˜60%.
To evaluate the ability of the NAC alkyl-ester analogues to provide cellular protection against oxidative stress, cells were treated with 0.05 mM of NAC, NACME, NACEE, NACPE and NACBE for 2, 24 and 48 hours. Treated cells were then exposed to 500 μM HQ for 16 hours. HQ solutions were removed and replaced with DMEM:F-12 supplemented with 1% FBS, and followed by the addition of XTT (2,3-bis-(2-methoxy-4-nitro-5-sulfophenyl)-2H-tetrazolium-5-carboxanilide) and PMS (phenazine methyl sulfate).
To compare the effectiveness of NACBE and NAC in protecting against oxidative damage, another dose dependent study was carried out by varying the pretreatment concentration from 0.001 mM to 1.0 mM. […] Whereas for NAC, to reach the same cell viability, 0.5 mM concentration was needed (10× times that of NACBE).

ARPE-19 cells [4] = assay: GSH assay (Promega GSH/GSSG-Glo); conditions: 1 mM for 24 hours
Experimental: The production of cellular GSH levels upon exposure to drugs were measured using the GSH assay kit. NACA and GSH-EE were used as controls in this assay. ARPE-19 cells were grown in white 96 well plates. The cells were exposed to 1 mM solutions of NAC, NACME, NACEE, NACPE, NACBE, NACA and glutathione ethyl ester (GSH-EE) for 24 hours. The solutions were removed and washed with PBS once. Afterwards, GSH assay was carried out according to manufacturer recommended protocol (Promega GSH/GSSG-Glo™) and luminescence readings were obtained with a luminometer, which a higher luminescence intensity indicates a higher GSH concentration.

CCCCOC(=O)[C@H](CS)NC(C)=O [NACBE, N-acetylcysteine butyl ester]
mitochondrial GSH level (luminescence intensity) [1]: increase in the luminescence intensity | protection towards mitochondrial damage (JC-1) (ARPE-19 cells [2]): improved protection towards mitochondrial damage | change in cell viability upon exposure to HQ (ARPE-19 cells [3]; 0.05 mM pretreatment for 24 and 48 hours, compared to NAC and the control): comparatively a higher cell viability | change in cell viability upon exposure to HQ (ARPE-19 cells [3]; 0.05 mM pretreatment for 2 hours): marginal effect | pretreatment concentration at which 100% cell viability was obtained (ARPE-19 cells [3]; pretreatment 0.001-1.0 mM for 24 hours): 0.05 mM | cellular GSH level (luminescence) compared to untreated cells (ARPE-19 cells [4]): produced the highest amounts of GSH
